Assays:
aldose reductase = target: T1, aldose reductase (Oryctolagus cuniculus, UniProt P15122); assay: Enzymatic assay method: aldose reductase inhibition (in vitro test); format: biochemical; details: rabbit lens enzyme; D,L-glyceraldehyde, NADPH; 35° C., 2 minutes; pH 6.2 buffer; read-out: IC50: concentration at which 50% of the aldose reductase activity is inhibited
T1 construct: The supernatant was dialyzed against 2 liters of 0.05M of saline solution and the dialyzed solution was used as the enzyme solution; from tissue; host or cells: rabbit eye lens, 10,000 G supernatant of homogenate, dialyzed
Description: (1) Enzymatic assay method:
0.5 M Phosphate buffer (pH 6.2)
2.0 M Lithium sulfate 0.2 ml
The compound of this invention mentioned
(dissolved in physiological saline
Enzyme solution [aldose reductase solution,
prepared as described below (2)]
60 mM D,L-glyceraldehyde 0.05 ml
2.5 mM Nicotinamide adenine
dinucleotide phosphate (reduced form)
The above reactants were mixed and reacted at 35° C. for 2 minutes and the decrease in amount of NADPH was measured with an Automatic Reaction Rate Analyzer Model LKB-8600 (Trademark, made by LKB Producter A.B.). The enzyme activity at a change in absorbance of 0.001 per minute was taken as unity.
(2) Method for preparing an enzyme solution
Rabbit eyes were enucleated and the lenses were collected. The lenses were homogenized with 3 volumes of distilled water at 4° C. (All the subsequent procedures were also performed at 4° C.) and centrifuged at 10,000 G for 60 minutes. The supernatant was dialyzed against 2 liters of 0.05M of saline solution and the dialyzed solution was used as the enzyme solution.
Each IC50 value (M) represents the concentration of the compounds of this invention at which 50% of the aldose reductase activity is inhibited.

[1] = test system: sorbitol accumulation in sciatic nerve; assay: Inhibitory effect of drug on sorbitol accumulation in sciatic nerve (in vivo test); parameters: species or system Male Sprague-Dawley rats (streptozotocin-induced diabetic); details: 32 mg/kg, oral, once a day for five days; 6 hours after final administration; streptozotocin-diabetic rats
Description: Inhibitory effect of drug on sorbitol accumulation in sciatic nerve:
Male Sprague-Dawley rats (6 weeks old) were fasted for 24 hours and then made diabetic by the intraperitoneal injection (2 ml/kg) of streptozotocin (75 mg/kg) dissolved in 2 mM citrate buffer (pH 4.5).
Seven days after streptozotocin injection, blood glucose value was measured by taking blood from tail vein. Rats with blood glucose value of >300 mg/dl were used as streptozotocin-induced diabetic animals.
Diabetic animals were divided at random into two groups (group (A) and group (B)).
Drug was suspended in 0.5% aqueous methylcellulose solution and orally administered to each rat in group (A) once a day for five days [hereinafter referred to as drug-treated diabetic rats].
Each of rats in group (B) and of normal rats was given the vehicle (0.5% aqueous methylcellulose solution) [hereinafter referred to as untreated diabetic rats and control rats, respectively].
Six hours after final administration of drug or vehicle, animals were killed and sorbitol content in sciatic nerve was assayed. Inhibitory percent of drug on sorbitol accumulation in sciatic nerve was calculated as follows. [formula]
S: Sorbitol content in sciatic nerve of untreated diabetic rats.
SD : Sorbitol content in sciatic nerve of drug-treated diabetic rats.
N: Sorbitol content in sciatic nerve of control rats.

| Compound | IC50 (aldose reductase) [nM] | I: Inhibitory percent on sorbitol accumulation in sciatic nerve [1] [%] |
| --- | --- | --- |
| O=C(O)Cn1c(=O)n(Cc2ccc(Br)cc2F)c(=O)c2ccccc21 [Compound B, 2-[3-(4-Bromo-2-fluorobenzyl)-1,2,3,4-tetrahydro-2,4-dioxoquinazolin-1-yl]acetic acid] | 4.8 | – |
| O=C(O)Cn1c(=O)n(Cc2ccc(I)cc2F)c(=O)c2ccccc21 [Compound D, 2-[3-(2-Fluoro-4-iodobenzyl)-1,2,3,4-tetrahydro-2,4-dioxoquinazolin-1-yl]acetic acid] | 5.3 | 101 |
| O=C(O)Cn1c(=O)n(Cc2ccc(Cl)c(Cl)c2)c(=O)c2ccccc21 [Compound A, 2-[3-(3,4-Dichlorobenzyl)-1,2,3,4-tetrahydro-2,4-dioxoquinazolin-1-yl]acetic acid] | 5.4 | – |
| O=C(O)Cn1c(=O)n(Cc2ccc(Br)cc2F)c(=O)c2ccc(Cl)cc21 [Compound F, 2-[3-(4-Bromo-2-fluorobenzyl)-7-chloro-1,2,3,4-tetrahydro-2,4-dioxoquinazolin-1-yl]acetic acid] | – | 99 |
| O=C(O)Cn1c(=O)n(Cc2ccc(Br)cc2F)c(=O)c2ccc(Br)cc21 [Compound E, 2-[7-Bromo-3-(4-bromo-2-fluorobenzyl)-1,2,3,4-tetrahydro-2,4-dioxoquinazolin-1-yl]acetic acid] | 3.1 | 103 |
| COc1ccc2c(=O)n(Cc3ccc(Br)cc3F)c(=O)n(CC(=O)O)c2c1 [Compound C, 2-[3-(4-Bromo-2-fluorobenzyl)-1,2,3,4-tetrahydro-7-methoxy-2,4-dioxoquinazolin-1-yl]acetic acid] | 5.4 | – |

Reference: patent US4883800A, “Quinazoline derivatives and process for their production” (Fujisawa Pharmaceutical Co., Ltd., priority 1985, dated 1989)
